Row | melting point [°C] | SMILES
1 | 164 to 170 | Cc1ccc(S(=O)(=O)N2CCC(c3ccc(CCCCC(=O)O)cc3)CC2)cc1
2 | 165 to 166 | Oc1ccccc1-n1nnc2cccnc21
3 | 188 to 190 | COc1cc(C(=O)Nc2nc(C)c(C(=O)NCc3ccccc3)s2)ccn1
4 | 136 to 137 | Cc1nc(N2CCN(CC3CCC3)C2=O)sc1C(=O)NCc1cccnc1
5 | 186 to 188 | COc1cc2[nH]ccc2cc1OCCCN1CCC(c2noc3cc(F)ccc23)CC1
6 | 52 to 55 | CCOC(=O)C(C(=O)C=CC(C)Oc1ccc(Oc2ccc(C(F)(F)F)cc2)cc1)C(=O)OCC (stereo unspecified)
7 | 126 to 128 | O=C(CCCN1CCC(c2ccccc2Cc2ccccc2)C1)c1ccc(F)cc1 (stereo unspecified)
8 | 135 to 138 | Cc1cccc(Nc2cc(Nc3ccc(OCC(=O)N(C)C)cc3)ncn2)c1
9 | 151 to 153 | COc1ccc2c(c1)CCC([C@@H]1CC[C@H](O)[C@@]1(C)CCO)C2 (stereo partly specified)
10 | > 250 | COc1cc2c(cc1F)C(=O)c1cc3ccccc3cc1C2=O
11 | 74 to 75 | CC(C)(C)OC(=O)NCCOc1ccccc1OCCBr
12 | 109 to 113 | CCOc1ccc(-c2nc(-c3cccc(CO)n3)cs2)cc1OCC
13 | 155 | CCOC(=O)CSc1nc(Nc2ccc(OC)c(Cl)c2)cc(-c2ccccc2)n1
14 | 166 to 168 | CCOC(=O)C=C1CCC(n2nc(-c3c(-c4ccccc4)nn4ccccc34)ccc2=O)CC1 (stereo unspecified)
15 | 87 to 88 | CCOC(=O)n1c2ccccc2c(=O)n1CSc1ccccc1
16 | 154 | CCn1nc(-c2ccc(F)cc2)c(C(C)=O)c(Nc2cccc3cccnc23)c1=O
17 | 85 to 86 | CC(C)(C)OC(=O)N1CC(NS(=O)(=O)c2ccc(Oc3ccccc3)cc2)C(SC(C)(C)C)C1 (stereo unspecified)
18 | 151 | CC#CCOc1ccc(SC(C(=O)NO)c2ccccc2)cc1 (stereo unspecified)
19 | 96 to 98 | CC(C)c1ccc(O)c(C(C)C)c1NC(=O)CN1CCN(CCSc2nc3ccccc3o2)CC1
20 | 173 to 174 | CC(C)c1nccn1-c1nc(-c2ccc(Cl)cc2)c(CCC(=O)O)o1
21 | 192 to 193 | CNC(=S)Nc1ccccc1-c1nc(C)c(-c2cccnc2)[nH]1
22 | 207 to 209 | Cc1c(Br)cc(Br)c(NC(=O)CBr)c1Br

Row | melting point [°C] | SMILES
23 | 180 | ON=C(c1cccc(F)c1)c1cccc2nc(N[C@@H]3CCc4ccccc43)ccc12
24 | 68 to 69 | COC(=O)CC(NC(=O)C(C)(C)C)C(C)=O (stereo unspecified)
25 | 137 to 138 | O=[N+]([O-])c1ccc2c(c1)COC(c1ccccc1F)O2 (stereo unspecified)
26 | 164 to 168 | CC(=O)Nc1nc(N(C(C)=O)C(C)=O)c(CCC=O)c(=O)[nH]1
27 | 270 | O=C1c2cccc(Cl)c2C(O)N1c1ccc2ccc(Cl)nc2n1 (stereo unspecified)
28 | 95 to 98 | O=[N+]([O-])c1ccc(Cl)nc1Nc1ccccc1
29 | 148 to 150 | CCc1[nH]n(C2CCCC2)c2nc(Cc3cccc(OC)c3)nc(=O)c1-2
30 | 150 to 151 | CCOC(=O)c1ccc(-c2cc(C(=O)OCC)c(N)[nH]2)cc1
31 | 114 to 115 | CN(C(=O)OC(C)(C)C)c1cc(Oc2cccc(-c3ccccc3)c2)ccc1N
32 | 127 to 130 | CC(C)(C)OC(=O)N1CC2CC(CN(CCCOc3ccc(C#N)cc3O)C2)C1
33 | 261 | CC(C)c1nc2[nH]c(=O)ccc2c(-c2ccc(F)cc2)c1/C=C/C=O
34 | 95 to 97 | Cc1cc(Cl)n(-c2ccc(Cl)cc2F)n1
35 | 166 to 169 | Cc1cccc(C(=O)NN=Cc2cccc(Cl)c2O)c1
36 | 163 to 165 | CC(C)c1ccc2c(c1)CCN2C(=O)Nc1cccnc1
37 | 186 to 189 | Cc1ccc(-c2csc(NS(=O)(=O)c3ccc(C)cc3)n2)cc1
38 | 166 | COc1cc2c(cc1OC)CN(CCCc1ccc(NC(=O)c3cccc4c(=O)c5cccc(F)c5[nH]c34)cc1)CC2
39 | 193 to 194 | CCOC(=O)c1cc(=O)c2cc3c(=O)cc(C(=O)OCC)n(CC)c3cc2o1
40 | 205 to 206 | CC1COCc2nc3c(N)nc4cc(CCS(C)(=O)=O)ccc4c3n21 (stereo unspecified)
41 | 85 | C=CCOC(=O)c1cnn(-c2c(Cl)cc(Br)cc2Cl)c1N
42 | 97 to 99 | CCCc1c(OCCCC(=O)NC(C)CCCc2cccnc2)ccc(C(C)=O)c1O (stereo unspecified)
43 | 206 to 207 | CCn1ncc2c1ncc1c(=O)n(C)c3cc(C)nn3c12
44 | 111 to 112 | Cc1cc(C(F)(F)F)cc(Oc2ccc(CCNc3ncnc4scnc34)cc2)n1

Row | melting point [°C] | SMILES
45 | 205 to 207 | CC(=O)Nc1c(C(=O)c2nccn2C)[nH]c2cc(Cl)ccc12
46 | 96 to 97 | COC(=O)c1cc(-c2ccc(F)cc2)oc1C
47 | 91 to 94 | COCc1cnc2c([N+](=O)[O-])cccc2c1Cl
48 | 127 to 128 | O=C(Nc1cccnc1)c1cccc(-c2cccc3oc(Cc4cccc(C(F)(F)F)c4)cc23)c1
49 | 204 to 206 | CC(=O)OC(C)c1ccc(Cl)c2nc3n(c12)CCCN3c1ccc(Cl)cc1Cl (stereo unspecified)
50 | 136 to 138 | CN(Cc1ccccc1)C(=O)c1c(-c2ccncc2)c(-c2ccc(F)cc2)nn1CCO
51 | 167 to 168 | CC1(C)Oc2c([N+](=O)[O-])ccc(Cl)c2C1=O
52 | 116 to 118 | O=Cc1ccc(N2CCN(c3ccncc3)CC2)cc1
53 | 183 | CSc1ccc(-c2nn(Cc3ccc(Cl)cc3Cl)c(=S)cc2-c2ccc(Cl)cc2)cc1
54 | 204 to 207 | COC(=O)COc1ccc(C(=O)NC(=O)Nc2ccc(C#N)cc2)cc1
55 | 135 to 143 | CC(CC(=O)O)NC(=O)OCC1c2ccccc2-c2ccccc21 (stereo unspecified)
56 | 96 to 98 | O=C(O)c1ccccc1C(=O)OC1CCN(c2cc(-c3ccccc3)nc(-c3ccccc3)n2)CC1
57 | 98.4 to 98.9 | COc1cc(C=CC(=O)c2ccccc2[N+](=O)[O-])cc(OC)c1
58 | 71.8 | COC(=O)C1CCc2cc(F)cc(C(F)(F)F)c2O1 (stereo unspecified)
59 | 235 to 237 | Cc1nc2n(c(=O)c1C(N)=O)C(C)CCC2=NNc1ccccc1 (stereo unspecified)
60 | 173 to 174 | CN1CCN(c2cc3ccccc3c(=O)[nH]2)CC1CO (stereo unspecified)
61 | 241 to 242 | O=C(Nc1cccc2c1C(=O)c1c-2n[nH]c1-c1ccc(C(=O)N2CCNCC2)s1)NN1CCOCC1
62 | 210 to 212 | CCCCc1ncc(/C(C)=C(\Cc2cccs2)C(=O)O)n1Cc1ccc(C#N)cc1
63 | 96.5 to 97.7 | Cc1ccc(S(=O)(=O)N2CCC[C@H]2CN2CCN(C)CC2)cc1
64 | 155 to 156 | O=C(O)C=CC(=O)c1ccc(Oc2ccc(Cl)c(Cl)c2)cc1
65 | 291 to 292 | O=C(Nc1nc(-c2ccccc2)cs1)c1ccccc1C(c1ccc(O)cc1)c1ccc(O)cc1

Row | SMILES | melting point [°C]
66 | CCN1CCN(c2ccc(C(=O)OC)cc2)CC1 | 102 to 104
67 | CSCC12CCC(O)C=C1CCC1C2CCC2(C)C(O)CCC12 (stereo unspecified) | 85 to 87
68 | COC(=O)CN1C(=S)CN=C(c2ccccc2Cl)c2cc(Cl)ccc21 | 191 to 192
69 | O=C(O)c1cc(Cc2c[nH]cn2)ccc1O | 254 to 258
70 | COc1ccc(-c2cc(NC(=O)Nc3ccc(N(CCCl)CCCl)cc3)c3cc(OC)ccc3n2)cc1 | 112 to 113
71 | COc1cccc(-n2c(CCl)nc3ccccc3c2=O)c1 | 180 to 182

Reference: a melting point compilation (Tetko et al.; mined from patent text by program, amines drawn as free bases though some values may be those of a salt)
